In brackets after ≈: the same amount, converted by molar mass. Entries after “also recorded” stand apart in the source; their conditions may differ. Where two headings read alike, the source gives them in different places.
Assays:
subgenomic RSV replicon [1] = type: cell-based, Respiratory syncytial virus; details: for EC50: read-out: Replicon EC50, APC126-E RSV replicon cells, 48 hours, luminescence; for activity in the primary screen (RSV replicon), in words: 10 μM, HTS data
RSV A Long = type: cell-based, Respiratory syncytial virus; details: read-out: RSV Long EC50; Hep2 cells, CPE assay
RSV B Washington = type: cell-based, Respiratory syncytial virus; details: read-out: RSV B EC50, Hep2 cells, CPE assay
Aqueous solubility = type: physicochemical
LogD = type: physicochemical
Microsomal stability = type: in vitro ADME; details: human liver microsomes
Hepatic clearance = type: in vitro ADME
Plasma protein binding = type: in vitro ADME
hERG channel = hERG channel (Homo sapiens, UniProt Q12809); test: hERG channel inhibition; type: biochemical
Sequence of hERG channel (Q12809 whole entry): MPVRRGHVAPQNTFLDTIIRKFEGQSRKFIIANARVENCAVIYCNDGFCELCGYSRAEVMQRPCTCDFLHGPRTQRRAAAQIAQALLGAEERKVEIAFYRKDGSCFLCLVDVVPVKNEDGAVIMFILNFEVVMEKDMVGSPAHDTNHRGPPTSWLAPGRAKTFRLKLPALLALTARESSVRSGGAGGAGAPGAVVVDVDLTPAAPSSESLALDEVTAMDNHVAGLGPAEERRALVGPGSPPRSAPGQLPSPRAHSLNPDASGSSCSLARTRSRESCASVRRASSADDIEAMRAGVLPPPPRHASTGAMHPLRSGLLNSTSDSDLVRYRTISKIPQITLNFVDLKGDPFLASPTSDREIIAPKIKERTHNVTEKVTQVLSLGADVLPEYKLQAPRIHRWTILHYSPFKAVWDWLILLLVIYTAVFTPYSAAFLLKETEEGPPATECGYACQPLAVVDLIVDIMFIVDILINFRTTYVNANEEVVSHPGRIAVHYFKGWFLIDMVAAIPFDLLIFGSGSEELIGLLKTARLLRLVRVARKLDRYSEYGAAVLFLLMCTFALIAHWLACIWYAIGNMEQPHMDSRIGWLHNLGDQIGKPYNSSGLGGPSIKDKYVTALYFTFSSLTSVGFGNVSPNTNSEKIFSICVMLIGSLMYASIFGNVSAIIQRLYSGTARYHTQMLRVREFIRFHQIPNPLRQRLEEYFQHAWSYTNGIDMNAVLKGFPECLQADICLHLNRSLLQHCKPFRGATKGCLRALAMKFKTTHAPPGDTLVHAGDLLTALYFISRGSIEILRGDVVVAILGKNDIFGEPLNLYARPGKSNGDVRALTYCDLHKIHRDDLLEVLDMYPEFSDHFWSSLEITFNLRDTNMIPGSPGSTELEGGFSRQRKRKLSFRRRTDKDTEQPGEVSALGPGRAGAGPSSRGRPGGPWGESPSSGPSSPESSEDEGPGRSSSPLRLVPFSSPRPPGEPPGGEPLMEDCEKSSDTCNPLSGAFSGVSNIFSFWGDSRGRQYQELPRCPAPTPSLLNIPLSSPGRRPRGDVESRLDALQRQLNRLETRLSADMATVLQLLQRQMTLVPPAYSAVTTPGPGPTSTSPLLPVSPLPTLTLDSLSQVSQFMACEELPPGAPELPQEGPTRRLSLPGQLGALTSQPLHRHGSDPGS

[2] = system: RSV N mutant (nucleoprotein mutations); type: cell-based, Respiratory syncytial virus; details: for EC50: read-out: N Mutant EC50, CPE assay, RSV604-resistant N mutant virus
[3] = system: RSV L mutant (Y1631H in L polymerase); type: cell-based, Respiratory syncytial virus; details: for EC50: read-out: L Mutant EC50
[4] = biological target: RSV polymerase (L/P complex) (Human respiratory syncytial virus A, UniProt P28887); test: In vitro RNA synthesis assay with purified L/P complex; type: biochemical
Sequence of RSV polymerase (L/P complex) (P03421 whole entry): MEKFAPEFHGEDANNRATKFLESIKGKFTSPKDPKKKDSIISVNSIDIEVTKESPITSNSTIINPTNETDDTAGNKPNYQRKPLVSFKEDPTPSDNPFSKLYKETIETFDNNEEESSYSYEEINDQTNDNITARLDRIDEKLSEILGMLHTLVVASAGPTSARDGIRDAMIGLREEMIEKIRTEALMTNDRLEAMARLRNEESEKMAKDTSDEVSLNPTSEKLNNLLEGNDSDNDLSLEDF
Sequence of RSV polymerase (L/P complex) (P28887 whole entry): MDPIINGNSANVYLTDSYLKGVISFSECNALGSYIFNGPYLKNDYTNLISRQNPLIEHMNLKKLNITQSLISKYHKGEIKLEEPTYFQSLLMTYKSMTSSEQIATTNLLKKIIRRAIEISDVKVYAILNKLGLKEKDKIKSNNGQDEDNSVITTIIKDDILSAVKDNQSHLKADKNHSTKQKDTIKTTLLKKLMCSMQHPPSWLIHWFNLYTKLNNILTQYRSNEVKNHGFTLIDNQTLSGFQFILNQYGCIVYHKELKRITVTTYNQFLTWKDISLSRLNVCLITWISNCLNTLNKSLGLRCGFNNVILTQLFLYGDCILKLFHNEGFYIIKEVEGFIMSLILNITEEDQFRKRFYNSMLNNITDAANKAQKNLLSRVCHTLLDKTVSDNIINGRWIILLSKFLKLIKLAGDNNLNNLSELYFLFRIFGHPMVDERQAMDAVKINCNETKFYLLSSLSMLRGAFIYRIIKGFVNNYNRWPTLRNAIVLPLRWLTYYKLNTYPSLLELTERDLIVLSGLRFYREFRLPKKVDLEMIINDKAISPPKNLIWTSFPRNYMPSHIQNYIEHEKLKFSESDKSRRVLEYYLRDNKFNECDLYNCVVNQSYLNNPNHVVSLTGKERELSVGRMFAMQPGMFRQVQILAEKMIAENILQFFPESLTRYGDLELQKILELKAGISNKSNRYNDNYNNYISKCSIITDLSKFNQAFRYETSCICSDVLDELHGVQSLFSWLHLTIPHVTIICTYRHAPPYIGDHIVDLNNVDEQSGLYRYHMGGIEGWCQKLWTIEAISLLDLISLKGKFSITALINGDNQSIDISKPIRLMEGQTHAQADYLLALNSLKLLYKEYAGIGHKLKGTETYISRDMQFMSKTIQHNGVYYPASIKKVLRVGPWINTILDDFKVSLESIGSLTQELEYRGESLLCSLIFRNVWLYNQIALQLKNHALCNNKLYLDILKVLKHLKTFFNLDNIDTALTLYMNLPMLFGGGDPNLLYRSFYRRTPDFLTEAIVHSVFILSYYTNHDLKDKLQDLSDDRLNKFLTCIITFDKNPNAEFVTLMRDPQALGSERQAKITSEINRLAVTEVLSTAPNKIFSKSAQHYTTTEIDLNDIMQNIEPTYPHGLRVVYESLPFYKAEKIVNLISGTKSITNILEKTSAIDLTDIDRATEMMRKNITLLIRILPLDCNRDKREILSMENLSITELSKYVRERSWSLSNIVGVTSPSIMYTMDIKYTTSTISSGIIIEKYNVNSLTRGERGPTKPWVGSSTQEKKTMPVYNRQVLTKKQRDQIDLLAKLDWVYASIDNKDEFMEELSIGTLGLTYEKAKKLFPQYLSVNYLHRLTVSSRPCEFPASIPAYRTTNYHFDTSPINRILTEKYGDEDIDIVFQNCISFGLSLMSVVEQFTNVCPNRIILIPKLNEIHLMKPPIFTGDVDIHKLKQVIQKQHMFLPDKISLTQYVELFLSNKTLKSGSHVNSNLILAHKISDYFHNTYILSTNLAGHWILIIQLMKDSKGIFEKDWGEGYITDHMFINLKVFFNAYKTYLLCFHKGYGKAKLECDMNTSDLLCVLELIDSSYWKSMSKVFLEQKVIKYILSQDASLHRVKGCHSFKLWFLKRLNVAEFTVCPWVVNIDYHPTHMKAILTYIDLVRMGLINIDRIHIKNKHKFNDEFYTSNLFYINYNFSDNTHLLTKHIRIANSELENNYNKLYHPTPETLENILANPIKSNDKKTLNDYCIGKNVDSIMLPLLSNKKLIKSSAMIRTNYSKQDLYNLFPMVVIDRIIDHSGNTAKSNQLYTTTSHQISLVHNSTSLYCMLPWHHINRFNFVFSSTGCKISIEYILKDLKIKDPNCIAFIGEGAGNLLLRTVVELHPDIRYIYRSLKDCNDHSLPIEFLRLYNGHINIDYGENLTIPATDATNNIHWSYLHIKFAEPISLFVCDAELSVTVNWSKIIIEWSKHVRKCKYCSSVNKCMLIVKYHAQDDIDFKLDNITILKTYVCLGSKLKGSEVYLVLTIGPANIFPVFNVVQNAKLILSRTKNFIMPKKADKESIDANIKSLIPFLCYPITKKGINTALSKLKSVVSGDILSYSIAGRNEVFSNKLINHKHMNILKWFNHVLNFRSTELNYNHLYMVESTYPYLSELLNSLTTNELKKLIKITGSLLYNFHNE

subgenomic RSV replicon [5] = details: read-out: Replicon EC50; assay validation; ref Tiong-Yip et al (2014); cited from earlier work

Row | SMILES | EC50 (subgenomic RSV replicon [1]) | EC50 (RSV A Long) | EC50 (RSV B Washington) | Solubility (Aqueous solubility) | LogD (LogD) | HLM (Microsomal stability) | Rhep (Hepatic clearance) | PPB (% free) (Plasma protein binding) | EC50 [2] | shift in activity against the L-mutant strain [3] | EC50 [3] | further results
1 | CN1c2ccc(-c3ccc(C#N)cc3)cc2[C@H]2[C@H](CCN2C(=O)c2cccc(F)c2)[C@@H]1CO [BRD4517] | 10.6 µM | 1.6 µM | 5.5 µM | – | – | – | – | – | – | – | – | –
2 | COc1ccc2c3c([nH]c2c1)[C@H](CO)N(Cc1ccccc1)CC31CCN(C(=O)Cc2ccccc2)CC1 [BRD5449] | 4.9 µM | 6.8 µM | > 50 µM | 16 µM (≈ 8.15 µg/mL) | >4.4 | 465 µL/min/mg | 194 μL/min/10^6 cells | <1 % free | – | – | – | –
3 | Cc1cccc(-c2ccc([C@@H]3[C@@H](CO)N4CCCCN(S(=O)(=O)c5cn(C)cn5)C[C@@H]34)cc2)c1 [BRD3969] | 4.2 µM | 3.9 µM | > 50 µM | 49 µM (≈ 23.6 µg/mL) | 3.6 | 77.9 µL/min/mg | 61.7 μL/min/10^6 cells | 1.6 % free | 6.9 µM | greater than 6 fold | > 25 µM | activity in the primary screen (RSV replicon), in words (subgenomic RSV replicon [1]): weak but significant activity; hERG (% inh at 11 μM) (hERG channel): 14%; N Mutant fold shift [2]: 6.9 μM (1.8x); L Mutant fold shift [3]: > 25 μM (>6x); effect on RSV RNA synthesis initiation or elongation in vitro ([4]; 1000 μM, data not shown): no effect; effect on in vitro RNA synthesis (de novo synthesis, back-priming) ([4]; concentrations up to 100 μM, 30 °C, 2 h): does not inhibit the ability of the polymerase to synthesize RNA; also recorded: no discernible effect; effect on T7 RNA polymerase (input minigenome template) (T7 RNA polymerase): inhibited T7 RNA polymerase
4 | COc1cc(CN2CC3(CCN(S(=O)(=O)c4cn(C)cn4)CC3)c3c(n(C)c4cc(OC)ccc34)[C@H]2CO)cc(OC)c1 [BRD3482] | 7.2 µM | 1 µM | 4.7 µM | 22 µM (≈ 13.4 µg/mL) | 2.9 | – | – | 3.8 % free | – | – | – | –
5 | Cn1cnc(S(=O)(=O)N2CCCCN3[C@H](CO)[C@@H](c4ccc(-c5ccc(F)cc5)cc4)[C@@H]3C2)c1 [BRD65768] | 4.3 µM | 7.5 µM | > 50 µM | 121 µM (≈ 58.6 µg/mL) | 3.3 | 41.2 µL/min/mg | 23.6 μL/min/10^6 cells | 2.1 % free | 13.1 µM | > 3 fold | > 25 µM | activity in the primary screen (RSV replicon), in words (subgenomic RSV replicon [1]): weak but significant activity; hERG (% inh at 11 μM) (hERG channel): 18%; N Mutant fold shift ([2]; shift versus RSV A2 EC50): 2 x; L Mutant fold shift ([3]; shift versus RSV A2 EC50): > 4 x
6 | NC(=O)c1ncn([C@@H]2O[C@H](CO)[C@@H](O)[C@H]2O)n1 [ribavirin] | – | – | – | – | – | – | – | – | – | – | – | EC50 (subgenomic RSV replicon [5]): 6.28 µM
7 | O=S(=O)(c1cccs1)N1CCCCN2[C@H](CO)[C@@H](c3ccc(/C=C/c4ccccc4)cc3)[C@@H]2C1 [BRD9101] | 4.3 µM | 1.7 µM | > 50 µM | <1 µM | >4.8 | 57.1 µL/min/mg | 67.8 μL/min/10^6 cells | <1 % free | 7.8 µM | greater than 15 fold | > 25 µM | % inhibition of the RSV replicon in the primary screen (subgenomic RSV replicon [1]; 10 uM, single concentration HTS): 70%; N Mutant fold shift ([2]; shift versus RSV A2 EC50): 4.6 x
8 | O=C(NC1CC1)c1cc2c(s1)-c1ccccc1N(C(=O)c1ccc(NC(=O)c3ccccc3-c3ccccc3)cc1)CC2 [YM53403] | – | – | – | – | – | – | – | – | – | – | – | EC50 (subgenomic RSV replicon [5]): 0.63 µM
